Test system: in-vitro human BBB model (HBMECs co-cultured with HBVPs and HAs)
Test: Permeability of propidium iodide across the in-vitro human BBB model
Type: in vitro ADME
Description: The present invention uses HBMECs and different ratios of HBVPs and HAs to construct a BBB model and measures TEER and permeability of propidium iodide (PI) to evaluate the integrity and performance of the BBB model. The present invention also uses a fluorescent dye Calcein to detect the activity of P-gp. The present invention also detects the concentrations of the transforming growth factor-β1 (TGF-β1), the matrix. metalloproteinases (MMP-9), and the vascular endothelial growth factor (VEGF), which influence the integrity of the BBB model.
Refer to FIG. 1 and FIG. 2. […] In Step S10, defrost a plurality of small tubes of frozen cell-containing liquids via placing them in water having a temperature of 37° C. for 1 minute until all the frozen cell-containing liquids completely liquefy and become the suspension liquids of HBVPs, HAs and HBMECs. In Step S12, respectively suck the suspension liquids of HBVPs, HAs and HBMECs from the small tubes, respectively place the suspension liquids in pretreated culture plates, and culture the suspension liquids in a carbon-dioxide incubator having a temperature of 37° C. and a relative humidity of 95%. In Step S14, provide a pretreated culture dish 10 having a filter membrane 12 made of PET (polyethylene terephthalate); flip over the filter membrane 12; attach the suspension liquids of HBVPs and HAs by a ratio of 1:1, 1:2, or 1:6 to the bottom surface of the filter membrane 12 of the culture dish 10 to plant HBVPs 14 and HAs 16 on the bottom surface, wherein the time for attaching is 1 hour and the total planting density of HBVPs 14 and HAs 16 is 4×10^5 cells/cm^2. In Step S16, fill the suspension liquid of HBMECs into the top surface of the filter membrane 12 to plant HBMECs 18 on the top surface, wherein the planting density of HBMECs 18 is 4×10^5 cell/cm^2. […]

`CC[N+](C)(CC)CCC[n+]1c(-c2ccccc2)c2cc(N)ccc2c2ccc(N)cc21.[I-].[I-]` [propidium iodide] was tested, and the “PI permeability in comparison with the BBB model with HBVPs:HAs=1:2” value (BBB model with HBVPs:HAs=1:1) was “higher”, the “PI permeability in comparison with the BBB model with HBVPs:HAs=1:2” value (BBB model with HBVPs:HAs=1:6) was “higher” and the “permeability of propidium iodide relative to that of a single layer of the cultured HBMECs” value (HBMECs co-cultured with HBVPs:HAs=1:2, condition medium PCM:ACM 1:1 for 7 days) was 39%.

— patent US20140295547A1, “METHOD TO CONSTRUCT IN-VITRO HUMAN BLOOD BRAIN BARRIER MODEL” (National Chung Cheng University, priority 2013, published 2014)
